Assay results from patent publication US20050033056A1, “Hydroxylated indole derivatives and uses thereof” (priority 2001, published 2005).

Target: CYP2C19 (Homo sapiens, UniProt P33261)
Assay: CYP inhibition in HLM: S-mephenytoin 4'-hydroxylation
Format: in vitro ADME
Set-up: tissue Gentest Corp. (Woburn, Mass.); host or cells: pooled human liver microsomes
Conditions: in the presence of Compound 1, concentration-dependent
Protocol: The incubations were carried out in test tubes (12.0×75 mm). The incubation mixtures (250 μL) contained 0.5 mg of HLM protein, 50 (CYP1A2 and CYP2E1) or 25 (CYP2C9, CYP2C19, CYP2D6 and CYP3A4) pmol of recombinant human CYPs, Compound 1 (10 or 50 μM), probe substrate (R—, S-warfarin, chlorzoxazone, S-mephenyloin, or bufuralol) at different concentrations, and 0.5 mg of NADPH in 50 mM Tris buffer containing 15 mM MgCl2 (pH 7.4). Compound 1 was added to the reaction mixture 5 minutes prior to the addition of the probe substrate. […]
The quantification was based on the calibration curves, and the quality control (QC) samples were applied to ensure the quality of the experiments. […]
4. […] MRM was applied for the quantification. […]
Data were acquired and analyzed by ChemStation (Version 6.03, Hewlett Packard, Waldbronn, Germany) for 6-, 7-, and 10-hydroxywarfarin and 6-hydroxychlorzoxazone, and MacQuan (Version 1.6, PE Biosystem, Foster City, Calif.) for 1′-hydroxybufuralol and 4′-hydroxymephenytoin. Quantification was based on peak area ratios of metabolites over the respective IS against the respective concentration of the metabolites. […] The metabolic rates were determined using Excel (Microsoft Office 97, Microsoft Corporation, Redmond, Wash.) or SigmaPlot (Version 6.00, SPSS Inc. Chicago, Ill.). […]

CYP2C19, sequence (P33261 whole entry): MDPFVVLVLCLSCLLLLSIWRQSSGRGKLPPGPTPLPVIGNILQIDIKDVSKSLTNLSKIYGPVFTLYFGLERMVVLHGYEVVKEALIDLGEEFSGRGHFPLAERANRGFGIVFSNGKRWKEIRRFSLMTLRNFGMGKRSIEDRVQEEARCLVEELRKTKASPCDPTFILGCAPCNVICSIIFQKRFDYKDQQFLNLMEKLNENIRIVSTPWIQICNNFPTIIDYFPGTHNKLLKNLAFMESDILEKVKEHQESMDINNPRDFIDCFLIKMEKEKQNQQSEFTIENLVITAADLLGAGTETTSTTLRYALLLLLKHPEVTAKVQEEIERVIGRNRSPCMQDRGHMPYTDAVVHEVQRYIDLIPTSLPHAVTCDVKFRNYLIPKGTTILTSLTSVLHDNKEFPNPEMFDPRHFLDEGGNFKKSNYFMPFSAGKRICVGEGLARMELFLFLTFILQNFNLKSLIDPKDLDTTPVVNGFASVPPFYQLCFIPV

## CNC(=O)Cc1ccc2ccn(C3CCN(CCc4ccccc4F)CC3)c2c1 [Compound 1, N-methyl-[1-[1-(2-fluorophenethyl)piperidine-4-yl]-1H-indol-6-yl] acetamide]
  effect on CYP2C19-mediated S-mephenyloin 4'-hydroxylation activity (in words): significantly reduced
